From patent US12600728B2, “Interleukin-17 inhibitors” (priority 2020, dated 2026)
Where two headings read alike, the source gives them in different places.

Legend:
[1] = molecular target: biotinylated human IL-17A / AF647-labeled human IL-17RA (Homo sapiens, UniProt Q16552); experiment: Human IL-17A×IL-17RA TR-FRET assay; format: binding
Procedure: Human IL-17A×IL-17RA TR-FRET Assay
Each compound concentration is tested in duplicate.
The final total assay volume is 10 μL.
Each plate contains test compounds in columns 1-22 and controls in columns 23 and 24. The neutral control (NC) contains all the assay components, but DMSO instead of test compound. […] The fluorescence values for emission at 615 nm and 665 nm are loaded to the evaluation software Helios.
From the activity data at each compound concentration, the IC50 values are obtained using the 4-parameter logistic function (“Hill-slope model”) of Helios.

[2] = molecular target: recombinant human IL-17AA (Homo sapiens, UniProt Q16552); experiment: IL-6 release from NHDF cells, IL-17AA plus TNF-α stimulation; format: cell-based; details: 24 hours, IL-6 by ELISA
Sequence of recombinant human IL-17AA (Q16552 24-155): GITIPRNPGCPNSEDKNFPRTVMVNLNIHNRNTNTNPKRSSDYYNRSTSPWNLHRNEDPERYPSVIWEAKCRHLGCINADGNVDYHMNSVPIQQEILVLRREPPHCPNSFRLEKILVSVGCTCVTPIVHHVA
Procedure: IL-6 Release from NHDF Cells (Normal Human Dermal Fibroblasts)
NHDF cells isolated from normal adult mesoderm, connective tissues were cultured in fibroblast growth medium containing 2% supplement. […] The cells were allowed to adhere overnight before they were incubated with the compound/cytokine cocktail.
Diluted compounds were pre-incubated with recombinant human IL-17AA or IL-17AF plus human TNF-α for 30 minutes at room temperature on a shaker. […] The cells were incubated with the compound/cytokines cocktail for 24 hours at 37° C. (5% CO2). […] The final DMSO or plasma concentrations were 0.1% or 20%, respectively. All compound incubations were done in duplicate. The supernatants were collected to quantify IL-6 by ELISA according to the manufacturers instructions. The optical density was measured at 450 nm by an EnVision Multilabel Plate Reader (Perkin Elmer). The IL-6 levels produced after TNF-α stimulation were subtracted from the IL-6 produced after IL-17/TNF-α co-stimulation. These IL-17-specific IL-6 concentrations were used for […] value calculation.

[3] = TR-FRET, biotinylated human IL-17A 5 nM, AF647-labeled human IL-17RA 30 nM, read-out: IL17AA FRET/ IL17Rawt IC50
[4] = NHDF cells, IL-17AA 30 pM plus TNF-α 6 pM, read-out: IL17AA + TNF IC50 IL-6
[5] = TR-FRET, 5 nM IL-17A, 30 nM IL-17RA, read-out: IL17AA FRET/ IL17Rawt IC50
[6] = TR-FRET, 5 nM IL-17A, 30 nM IL-17RA, reference examples (pyridines), read-out: IL17AA FRET/ IL17RAwt IC50

Sequence of biotinylated human IL-17A / AF647-labeled human IL-17RA (Q16552 24-155): as above

| Compound | IC50 [2, 4] | IC50 [1, 5] | further results |
| --- | --- | --- | --- |
| CCc1nocc1C(=O)N[C@H](C(=O)Nc1ccc(-c2c(C)cc[n+]([O-])c2C)cc1)C1CCC(F)(F)C1 (mixture of isomers) [Example 86, 3-(4-((2S)-2-(3,3-difluorocyclopentyl)-2-(3-ethylisoxazole-4-carboxamido)acetamido)phenyl)-2,4-dimethylpyridine 1-oxide] | 232 nM |  | IC50 [1, 3]: 119 nM |
| Cc1cc[n+]([O-])c(C)c1-c1ccc(NC(=O)[C@@H](NC(=O)c2ccnn2C)[C@H]2CC=C(F)CC2)cc1 (single isomer, unassigned) [Example 12a, 3-(4-((S)-2-((R)-4-fluorocyclohex-3-en-1-yl)-2-(1-methyl-1H-pyrazole-5-carboxamido)acetamido)phenyl)-2,4-dimethylpyridine 1-oxide or 3-(4-((S)-2-((S)-4-fluorocyclohex-3-en-1-yl)-2-(1-methyl-1H-pyrazole-5-carboxamido)acetamido)phenyl)-2,4-dimethylpyridine 1-oxide] | 17 nM |  | IC50 [1, 3]: 112 nM |
| Cc1cc[n+]([O-])c(C)c1-c1ccc(NC(=O)[C@@H](NC(=O)c2ccnn2C)[C@H]2CC=C(F)CC2)cc1 (single isomer, unassigned) [Example 12b, 3-(4-((S)-2-((R)-4-fluorocyclohex-3-en-1-yl)-2-(1-methyl-1H-pyrazole-5-carboxamido)acetamido)phenyl)-2,4-dimethylpyridine 1-oxide or 3-(4-((S)-2-((S)-4-fluorocyclohex-3-en-1-yl)-2-(1-methyl-1H-pyrazole-5-carboxamido)acetamido)phenyl)-2,4-dimethylpyridine 1-oxide] | 8 nM |  | IC50 [1, 3]: 151 nM |
| Cc1c(-c2ccc(NC(=O)C(NC(=O)c3ccnn3C)C3CC4C(C3)C4(F)F)cc2)c(Cl)cc[n+]1[O-] (single isomer, unassigned) [Example 54a] |  |  | IC50 ([1]; IL17AA FRET/ IL17Rawt IC50, TR-FRET, biotinylated human IL-17A 5 nM, AF647-labeled human IL-17RA 30 nM): 28 nM; IC50 ([2]; IL17AA + TNF IC50 IL-6, NHDF cells, IL-17AA 30 pM plus TNF-α 6 pM): 34 nM |
| Cc1nocc1C(=O)NC(C(=O)Nc1ccc(-c2c(Cl)cc[n+]([O-])c2C)cc1)C1CC2CC2C1 (single isomer, unassigned) [Example 146] |  |  | IC50 ([2]; NHDF cells, IL-17AA 30 pM + TNF-α 6 pM, read-out: IL17AA + TNF IC50 IL-6): 57 nM |
| Cc1c(-c2ccc(NC(=O)[C@@H](NC(=O)c3ccnn3C)C3CCCCC3)cc2F)ccc[n+]1[O-] [Example 83, (S)-3-(4-(2-cyclohexyl-2-(1-methyl-1H-pyrazole-5-carboxamido)acetamido)-2-fluorophenyl)-2-methylpyridine 1-oxide] | 115 nM |  |  |
| Cc1c(-c2ccc(NC(=O)[C@@H](NC(=O)c3ccnn3C)[C@H]3CCCC(F)(F)C3)cc2F)c(Cl)cc[n+]1[O-] [Example 110, 4-chloro-3-(4-((S)-2-((S)-3,3-difluorocyclohexyl)-2-(1-methyl-1H-pyrazole-5-carboxamido)acetamido)-2-fluorophenyl)-2-methylpyridine 1-oxide] | 8 nM |  |  |
| Cc1c(-c2ccc(NC(=O)C(NC(=O)c3ccc4n3CCNC4)[C@@H]3C[C@@H]4[C@H](C3)C4(F)F)cc2)c(Cl)cc[n+]1[O-] (stereo partly drawn) [Example 211, 4-chloro-3-(4-(2-((1R,3s,5S)-6,6-difluorobicyclo[3.1.0]hexan-3-yl)-2-(1,2,3,4-tetrahydropyrrolo[1,2-a]pyrazine-6-carboxamido)acetamido)phenyl)-2-methylpyridine 1-oxide] |  | 499 nM |  |
| Cc1cc[n+]([O-])c(C)c1-c1ccc(NC(=O)C(NC(=O)c2ccc3n2CCN(C)C3)C(C)c2ccccc2Cl)cc1 (centres unmarked) [Example 212, 3-(4-(3-(2-chlorophenyl)-2-(2-methyl-1,2,3,4-tetrahydropyrrolo[1,2-a]pyrazine-6-carboxamido)butanamido)phenyl)-2,4-dimethylpyridine 1-oxide] |  | 502 nM |  |
| Cc1cc[n+]([O-])c(C)c1-c1ccc(NC(=O)[C@@H](NC(=O)c2ccc3n2CCN(C)C3)C2CCC(F)CC2)cc1 (stereo partly drawn) [Example 214, 3-(4-((2S)-2-(4-fluorocyclohexyl)-2-(2-methyl-1,2,3,4-tetrahydropyrrolo[1,2-a]pyrazine-6-carboxamido)acetamido)phenyl)-2,4-dimethylpyridine 1-oxide] |  | 690 nM |  |
| Cc1cc[n+]([O-])c(C)c1-c1ccc(NC(=O)[C@@H](NC(=O)c2ccc3n2CCNC3)C(C)c2ccccc2Cl)cc1 (stereo partly drawn) [Example 216, 3-(4-((2S)-3-(2-chlorophenyl)-2-(1,2,3,4-tetrahydropyrrolo[1,2-a]pyrazine-6-carboxamido)butanamido)phenyl)-2,4-dimethylpyridine 1-oxide] |  | 796 nM |  |
| Cc1cc[n+]([O-])c(C)c1-c1ccc(NC(=O)C(NC(=O)c2ccc3n2CCNC3)C2CCC(C)CC2)cc1 [Example 220, 2,4-dimethyl-3-(4-((S)-2-((1r,4S)-4-methylcyclohexyl)-2-(1,2,3,4-tetrahydropyrrolo[1,2-a]pyrazine-6-carboxamido)acetamido)phenyl)pyridine 1-oxide] |  | 2310 nM |  |
| Cc1cc[n+]([O-])c(C)c1-c1ccc(NC(=O)C(NC(=O)c2ccnn2C)C2CC(F)CC(F)C2)cc1 (centres unmarked) [Example 222, 3-(4-(2-(3,5-difluorocyclohexyl)-2-(1-methyl-1H-pyrazole-5-carboxamido)acetamido)phenyl)-2,4-dimethylpyridine 1-oxide] |  | 7290 nM |  |
| CCn1nccc1C(=O)N[C@H](C(=O)Nc1ccc(-c2c(C(F)(F)F)cc[n+]([O-])c2C)cc1)C1CC2CC2C1 (stereo partly drawn) [Example 223, 3-(4-((2S)-2-(bicyclo[3.1.0]hexan-3-yl)-2-(1-ethyl-1H-pyrazole-5-carboxamido)acetamido)phenyl)-2-methyl-4-(trifluoromethyl)pyridine 1-oxide] |  | 9080 nM |  |
| Cc1nccc(Cl)c1-c1ccc(NC(=O)[C@@H](NC(=O)c2ccnn2C)C2CCCCC2)cc1F [compound 137, N-((1S)-2-((4-(4-chloro-2-methylpyridin-3-yl)-3-fluorophenyl)amino)-1-cyclohexyl-2-oxoethyl)-1-methyl-1H-pyrazole-5-carboxamide, reference compound] |  |  | IC50 ([2]; NHDF cells, IL-17AA 30 pM + TNF-α 6 pM, reference examples (pyridines), read-out: IL 17AA + TNF IC50 IL-6): 578 nM |
| CCc1nocc1C(=O)N[C@H](C(=O)Nc1ccc(-c2c(Cl)ccnc2C)cc1)[C@H]1CCCC(F)(F)C1 [compound 140, N-((S)-2-((4-(4-chloro-2-methylpyridin-3-yl)phenyl)amino)-1-((S)-3,3-difluorocyclohexyl)-2-oxoethyl)-3-ethylisoxazole-4-carboxamide, reference compound] |  |  | IC50 [1, 6]: 1220 nM |
| CCn1nccc1C(=O)N[C@H](C(=O)Nc1ccc(-c2c(C)ccnc2C)cc1)[C@H]1CC[C@H](C(F)(F)F)CC1 [compound 141, N-((S)-2-((4-(2,4-dimethylpyridin-3-yl)phenyl)amino)-2-oxo-1-((1r,4S)-4-(trifluoromethyl)cyclohexyl)ethyl)-1-ethyl-1H-pyrazole-5-carboxamide, reference compound] |  |  | IC50 [1, 6]: 2630 nM |
| CCc1nocc1C(=O)N[C@H](C(=O)Nc1ccc(-c2c(C)ccnc2C)cc1)[C@H]1CC[C@H](C(F)(F)F)CC1 [compound 142, N-((S)-2-((4-(2,4-dimethylpyridin-3-yl)phenyl)amino)-2-oxo-1-((1r,4S)-4-(trifluoromethyl)cyclohexyl)ethyl)-3-ethylisoxazole-4-carboxamide, reference compound] |  |  | IC50 [1, 6]: 4380 nM |
| Cc1nocc1C(=O)N[C@H](C(=O)Nc1ccc(-c2c(C(F)(F)F)ccnc2C)cc1)[C@H]1CCCC(F)(F)C1 [compound 143, N-((S)-1-((S)-3,3-difluorocyclohexyl)-2-((4-(2-methyl-4-(trifluoromethyl)pyridin-3-yl)phenyl)amino)-2-oxoethyl)-3-methylisoxazole-4-carboxamide, reference compound] |  |  | IC50 [1, 6]: 851 nM |

Second part, led by results:

| IC50 [2, 4] | IC50 [1, 5] | Compound | further results |
| --- | --- | --- | --- |
| 37 nM |  | Cc1c(-c2ccc(NC(=O)[C@@H](NC(=O)c3ccnn3C)C3CCCCC3)cc2F)c(Cl)cc[n+]1[O-] (single isomer, unassigned) [Example 2a] | IC50 [1, 3]: 49 nM |
| 14 nM |  | Cc1c(-c2ccc(NC(=O)[C@@H](NC(=O)c3ccnn3C)C3CCCCC3)cc2F)c(Cl)cc[n+]1[O-] (single isomer, unassigned) [Example 2b] | IC50 [1, 3]: 17 nM |
| 11 nM |  | CCn1nccc1C(=O)N[C@H](C(=O)Nc1ccc(-c2c(Cl)cc[n+]([O-])c2C)cc1)C1CCC(F)(F)CC1 (single isomer, unassigned) [Example 13a] | IC50 [1, 3]: 16 nM |
